Assay results: publication doi:10.1101/2025.02.17.638454, “Synergistic RAS-MAPK and AKT Activation in MYC-Driven Tumors via Adjacent PVT1 Rearrangements” (bioRxiv, 2025)
No end group written: not given here.

Experiments:
MYC = assay: q-RT-PCR of MYC transcript in COLO-320DM; assay type: cell-based, human; details: COLO320DM, induction of HNB (-/+ Dox); n=3, unpaired t-test, 0.0011
Experimental: Total RNA was extracted with the TRIzol (Roche, Indianapolis, IN) as described by the manufacturer and complementary DNA synthesis, 1 μg of total RNA was reverse transcribed by using the GoScriptTM Reverse Transcription Mix, Random Primer Protocol (Promega, Madison, WI). Real-time PCR was run in triplicate using PowerUpTM SYBRTM Green Master Mix (Thermo Fisher Scientific), following the manufacturer’s instructions. Real-time PCR amplification monitoring was performed using the CFX96 Touch Real-Time PCR Detection System (Bio-Rad). Data were expressed as relative mRNA levels normalized to the GAPDH, served as endogenous normalization control expression levels in each sample, and are represented as mean ± standard error of the mean between 2 independent experiments unless otherwise indicated in the figure legend. The primer sequences are listed in the Supplementary Table.
The HNB ORF and eGFP (control) were cloned in an inducible lentivirus expression, TRE-gateway plasmid (pLIX_403, Addgene, #41395). Lentivirus was produced in HEK293T cells using the protocol described above. […] The protein lysates were collected and quantified using the previously described protocol. […] Bound proteins were detected with horseradish-peroxidase–conjugated secondary antibodies (Cell Signaling Technologies) and SuperSignal West Femto (Thermo Fisher Scientific). […]

HNB = assay: ITC of HNB into assay buffer (self-interaction, baseline control); assay type: binding; details: 500 µM HNB into ITC assay buffer, 25°C
Experimental: Isothermal titration calorimetry (ITC) measures the change in temperature when two or more biomolecules bind to each other in a solution. The assay provides the binding affinity of ligands to proteins and the entropy or enthalpy of the reaction. Recombinant KRAS protein (#ab156968, Abcam) was dialyzed into the ITC assay buffer (20mM Tris pH 8.0, 100mM NaCl, 5mM Beta-mercaptoethanol) and concentrated to about 100 μM. During ITC titration twenty 6 μl injections (with intervals of 150 seconds) of 500μM HNB were made into the ITC cell containing 93 μM KRAS. Titration of 500μM HNB into the ITC assay buffer under the same conditions was used as the baseline control. ITC experiments were performed using Affinity ITC instrument (TA Instruments) at 25°C. The data was fitted and analyzed using NanoAnalyze software provided by TA Instruments. […]
(§1) bioRxiv preprint doi: https://doi.org/10.1101/2025.02.17.638454; this version posted February 22, 2025. The copyright holder for this preprint (which was not certified by peer review) is the author/funder, who has granted bioRxiv a license to display the preprint in perpetuity. It is made available under aCC-BY 4.0 International license. […]

[1] = tested on: HALLMARK_MTORC1_SIGNALING; assay: GSEA MTORC1 signaling, COLO320DM; assay type: cell-based, human; details: si.CircPVT1 vs si.Ctrl, n=3, Padj = 0.0188
Excerpt: RNAseq processing: Raw reads were mapped to the hg19 human reference genome using the STAR aligner (v.2.5.0a) 66. PCR-duplicated reads and low mapping quality reads (MQ score below 20) were removed using Picard tools and SAMtools, respectively. Aligned reads were counted using htseq-count (v.0.6.1p1) 69 and normalized according to size factors method from DESeq2 70. We used fold change ≥2 and FDR <0.05 as the determination of differentially expressed genes (DEG). Statistical analysis and plots were performed inside R environment version 3.1.0. upload files) […]
as §1, with “a CC-BY” for “aCC-BY”, “license .” for “license.”
Supplementary Figure 11: Gene set enrichment analysis scores (GSEA) analysis of genes involved in MTORC 1 signaling in COLO320DM (A) and SK-PN-DW (B) treated with si.CircPVT 1. si.Ctrl was used as control. n=3, for each treatment condition .
(also on this page, place not known: SK-PN-DWB MTORC1 si.CircPVT1. condition. Enrichment Score Enrichment Score .CC-BY licenseavailable preprintthis https://doi.org/10.1101/2025.02.17.638454doi:) […]

MKTQLGAVKGFLHV [HNB]
MYC mRNA level (MYC): significantly reduced MYC expression at the mRNA as well as the protein levels | HNB self-interaction (HNB): not detected

si.CircPVT1: siRNA targeting the junction sequence of CircPVT1, 5’-UGGGCUUGAGGCCUGAUCUUU-3’ (other strand not given here)
NES, HALLMARK_MTORC1_SIGNALING [1]: -1.506
